From patent US11198692B2, “Dihydro-pyrrolo-pyridine derivatives” (Pfizer Inc., priority 2017, dated 2021) come the findings set out here.

A word on the EC50: it is the midpoint of the concentration-response curve.

For the assay, the target named is T1, Human M4 receptors (Homo sapiens, UniProt P08173).
T1 construct: expressed in transfected cells
T1 sequence (P08173 1-479): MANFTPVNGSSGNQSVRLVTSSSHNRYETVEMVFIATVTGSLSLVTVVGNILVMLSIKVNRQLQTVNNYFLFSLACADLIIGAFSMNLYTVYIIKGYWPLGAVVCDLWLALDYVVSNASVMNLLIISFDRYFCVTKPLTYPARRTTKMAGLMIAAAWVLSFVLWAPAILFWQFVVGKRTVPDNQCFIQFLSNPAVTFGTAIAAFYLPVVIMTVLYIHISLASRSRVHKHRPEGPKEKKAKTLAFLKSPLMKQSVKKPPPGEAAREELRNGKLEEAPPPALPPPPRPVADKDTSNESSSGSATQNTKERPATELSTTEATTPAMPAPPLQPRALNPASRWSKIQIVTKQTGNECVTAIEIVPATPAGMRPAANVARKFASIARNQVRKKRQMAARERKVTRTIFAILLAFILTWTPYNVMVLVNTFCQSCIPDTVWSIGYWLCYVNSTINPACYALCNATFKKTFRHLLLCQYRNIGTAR
In words: M4 PAM cAMP assay (GloSensor). It counts as cell-based. The note with it: HEK293 GloSensor cells expressing hM4, with EC20 acetylcholine and isoproterenol, geometric mean of 2-4 determinations unless footnoted (b: >=5, c: single). An outline of the steps:
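hM4-expressing HEK293 GloSensor cells were equilibrated 2 h at RT with GloSensor reagent, then given compound with EC20 acetylcholine and isoproterenol (EC80) for 10 min at RT before reading. Effect normalised to 10 μM acetylcholine and DMSO; 10-point duplicate curves fitted 4-parameter for EC50 and Emax (top asymptote).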

The compound `CNc1nc(C)c(C)c2c1CN(C(=O)C[C@@H]1C[C@H]1c1ccc(Cl)nc1)C2` (racemic) [Example 33, 2-[trans-2-(6-chloropyridin-3-yl)cyclopropyl]-1-[6,7-dimethyl-4-(methylamino)-1,3-dihydro-2H-pyrrolo[3,4-c]pyridin-2-yl]ethanone] showed an EC50 of 5.32 nM. The Emax (Emax = maximum asymptote of fitted dose response curve, read-out: EC50 Mean Asymptote Maximum (%)) came to 128%.
